Measured values taken from US9809578B2, “Pyrazolyl urea, thiourea, guanidine and cyanoguanidine compounds as trkA kinase inhibitors” (Array BioPharma Inc., priority 2012, dated 2017).

Columns and labels:
Format in all cases: biochemical
Settings in all cases: 10 μM, ATP near Km
Abl-P = biological target: T1, Abl-P (Homo sapiens, UniProt P00519); experiment: KinaseProfiler Abl-P
T1 construct: purchased Millipore (KinaseProfiler service)
Description: (§1) The compound was run in duplicate at a concentration of ATP near the Km for each individual kinase according to Millipore's specifications.

AKT1 = biological target: T2, AKT1 (Homo sapiens, UniProt P31749); experiment: KinaseProfiler AKT1
T2 construct: purchased Millipore (KinaseProfiler service)
Description: as §1

AKT2 = biological target: T3, AKT2 (Homo sapiens, UniProt P31751); experiment: KinaseProfiler AKT2
T3 construct: purchased Millipore (KinaseProfiler service)
Description: as §1

ALK4 = biological target: T4, ALK4 (Homo sapiens, UniProt P36896); experiment: KinaseProfiler ALK4
T4 construct: purchased Millipore (KinaseProfiler service)
Description: as §1

BrSK2 = biological target: T5, BrSK2 (Homo sapiens, UniProt Q8IWQ3); experiment: KinaseProfiler BrSK2
T5 construct: purchased Millipore (KinaseProfiler service)
Description: as §1

CDK5/p25 = biological target: T6, CDK5/p25 (Homo sapiens, UniProt Q00535); experiment: KinaseProfiler CDK5/p25
T6 construct: purchased Millipore, Inc. (KinaseProfiler service)
Description: as §1

CK1gamma2 = biological target: T7, CK1gamma2 (Homo sapiens, UniProt P78368); experiment: KinaseProfiler CK1gamma2
T7 construct: purchased Millipore, Inc. (KinaseProfiler service)
Description: as §1

DAPK2 = biological target: T8, DAPK2 (Homo sapiens, UniProt Q9UIK4); experiment: KinaseProfiler DAPK2
T8 construct: purchased Millipore, Inc. (KinaseProfiler service)
Description: as §1

DCAMKL2 = biological target: T9, DCAMKL2 (Homo sapiens, UniProt Q8N568); experiment: KinaseProfiler DCAMKL2
T9 construct: purchased Millipore, Inc. (KinaseProfiler service)
Description: as §1

DDR2 = biological target: T10, DDR2 (Homo sapiens, UniProt Q16832); experiment: KinaseProfiler DDR2
T10 construct: purchased Millipore, Inc. (KinaseProfiler service)
Description: as §1

EphA4 = biological target: T11, EphA4 (Homo sapiens, UniProt P54764); experiment: KinaseProfiler EphA4
T11 construct: purchased Millipore, Inc. (KinaseProfiler service)
T11 sequence (P54764 20-986): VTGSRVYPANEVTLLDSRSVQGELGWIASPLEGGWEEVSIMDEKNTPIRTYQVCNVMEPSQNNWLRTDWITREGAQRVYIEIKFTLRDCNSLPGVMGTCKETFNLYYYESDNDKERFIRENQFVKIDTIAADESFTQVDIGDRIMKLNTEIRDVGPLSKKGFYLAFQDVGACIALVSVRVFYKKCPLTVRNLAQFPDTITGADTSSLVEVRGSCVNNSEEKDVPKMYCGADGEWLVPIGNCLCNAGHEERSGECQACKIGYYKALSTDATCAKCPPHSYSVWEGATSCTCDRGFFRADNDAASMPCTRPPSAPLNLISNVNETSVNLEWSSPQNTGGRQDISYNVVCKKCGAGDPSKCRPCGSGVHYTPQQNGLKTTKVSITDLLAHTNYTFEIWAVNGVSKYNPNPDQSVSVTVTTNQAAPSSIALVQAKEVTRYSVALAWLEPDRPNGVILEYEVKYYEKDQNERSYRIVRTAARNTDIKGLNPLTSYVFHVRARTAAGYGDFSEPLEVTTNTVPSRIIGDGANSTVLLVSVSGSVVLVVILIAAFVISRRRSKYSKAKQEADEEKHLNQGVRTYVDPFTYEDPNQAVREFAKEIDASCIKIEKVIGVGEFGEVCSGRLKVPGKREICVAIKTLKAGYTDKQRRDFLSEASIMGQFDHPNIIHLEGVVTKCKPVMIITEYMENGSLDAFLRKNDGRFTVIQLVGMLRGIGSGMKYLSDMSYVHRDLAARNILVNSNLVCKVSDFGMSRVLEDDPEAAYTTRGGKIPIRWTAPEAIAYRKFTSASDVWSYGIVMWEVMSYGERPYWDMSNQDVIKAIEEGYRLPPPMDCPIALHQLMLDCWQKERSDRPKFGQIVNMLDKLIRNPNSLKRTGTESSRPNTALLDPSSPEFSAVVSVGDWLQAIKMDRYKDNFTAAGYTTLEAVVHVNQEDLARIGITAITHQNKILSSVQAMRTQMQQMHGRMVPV
Description: as §1

FAK2 = biological target: T12, FAK2 (Homo sapiens, UniProt Q14289); experiment: KinaseProfiler FAK2
T12 construct: purchased Millipore, Inc. (KinaseProfiler service)
Description: as §1

FGFR3 = biological target: T13, FGFR3 (Homo sapiens, UniProt P22607); experiment: KinaseProfiler FGFR3
T13 construct: purchased Millipore, Inc. (KinaseProfiler service)
T13 sequence (P22607 23-806): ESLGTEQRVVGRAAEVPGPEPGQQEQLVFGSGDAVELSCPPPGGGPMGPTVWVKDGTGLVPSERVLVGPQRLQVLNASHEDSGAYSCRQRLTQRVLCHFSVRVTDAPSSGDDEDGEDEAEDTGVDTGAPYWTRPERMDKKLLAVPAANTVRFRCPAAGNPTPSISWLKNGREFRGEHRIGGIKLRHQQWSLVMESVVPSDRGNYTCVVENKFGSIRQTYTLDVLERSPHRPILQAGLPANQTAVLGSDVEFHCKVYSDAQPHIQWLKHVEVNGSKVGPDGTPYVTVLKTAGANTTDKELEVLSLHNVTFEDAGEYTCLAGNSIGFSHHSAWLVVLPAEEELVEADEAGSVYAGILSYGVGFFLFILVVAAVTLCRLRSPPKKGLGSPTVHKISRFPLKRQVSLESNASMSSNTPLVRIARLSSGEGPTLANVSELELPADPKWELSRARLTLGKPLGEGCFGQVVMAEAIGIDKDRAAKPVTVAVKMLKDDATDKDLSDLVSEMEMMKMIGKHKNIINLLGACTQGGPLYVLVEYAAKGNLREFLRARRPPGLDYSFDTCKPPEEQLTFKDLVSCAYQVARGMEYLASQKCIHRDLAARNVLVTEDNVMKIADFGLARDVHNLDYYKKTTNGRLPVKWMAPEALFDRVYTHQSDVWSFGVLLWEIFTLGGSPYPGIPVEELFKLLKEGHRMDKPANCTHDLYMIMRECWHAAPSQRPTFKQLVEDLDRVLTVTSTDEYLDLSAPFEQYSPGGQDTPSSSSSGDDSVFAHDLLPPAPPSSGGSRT
Description: as §1

Fgr = biological target: T14, Fgr (Homo sapiens, UniProt P09769); experiment: KinaseProfiler Fgr
T14 construct: purchased Millipore, Inc. (KinaseProfiler service)
Description: as §1

Flt3 = biological target: T15, Flt3 (Homo sapiens, UniProt P36888); experiment: KinaseProfiler Flt3
T15 construct: purchased Millipore, Inc. (KinaseProfiler service)
Description: as §1

Flt4 = biological target: T16, Flt4 (Homo sapiens, UniProt P35916); experiment: KinaseProfiler Flt4
T16 construct: purchased Millipore, Inc. (KinaseProfiler service)
Description: as §1

Fms = biological target: T17, Fms (Homo sapiens, UniProt P07333); experiment: KinaseProfiler Fms
T17 construct: purchased Millipore, Inc. (KinaseProfiler service)
Description: as §1

GRK5 = biological target: T18, GRK5 (Homo sapiens, UniProt P34947); experiment: KinaseProfiler GRK5
T18 construct: purchased Millipore, Inc. (KinaseProfiler service)
Description: as §1

GRK7 = biological target: T19, GRK7 (Homo sapiens, UniProt Q8WTQ7); experiment: KinaseProfiler GRK7
T19 construct: purchased Millipore, Inc. (KinaseProfiler service)
Description: as §1

HIPK3 = biological target: T20, HIPK3 (Homo sapiens, UniProt Q9H422); experiment: KinaseProfiler HIPK3
T20 construct: purchased Millipore, Inc. (KinaseProfiler service)
Description: as §1

ITK = biological target: T21, ITK (Homo sapiens, UniProt Q08881); experiment: KinaseProfiler ITK
T21 construct: purchased Millipore, Inc. (KinaseProfiler service)
Description: as §1

JNK1alpha1 = biological target: T22, JNK1alpha1 (Homo sapiens, UniProt P45983); experiment: KinaseProfiler JNK1alpha1
T22 construct: purchased Millipore, Inc. (KinaseProfiler service)
Description: as §1

KIT = biological target: T23, KIT (Homo sapiens, UniProt P10721); experiment: KinaseProfiler KIT
T23 construct: purchased Millipore, Inc. (KinaseProfiler service)
T23 sequence (P10721 26-976): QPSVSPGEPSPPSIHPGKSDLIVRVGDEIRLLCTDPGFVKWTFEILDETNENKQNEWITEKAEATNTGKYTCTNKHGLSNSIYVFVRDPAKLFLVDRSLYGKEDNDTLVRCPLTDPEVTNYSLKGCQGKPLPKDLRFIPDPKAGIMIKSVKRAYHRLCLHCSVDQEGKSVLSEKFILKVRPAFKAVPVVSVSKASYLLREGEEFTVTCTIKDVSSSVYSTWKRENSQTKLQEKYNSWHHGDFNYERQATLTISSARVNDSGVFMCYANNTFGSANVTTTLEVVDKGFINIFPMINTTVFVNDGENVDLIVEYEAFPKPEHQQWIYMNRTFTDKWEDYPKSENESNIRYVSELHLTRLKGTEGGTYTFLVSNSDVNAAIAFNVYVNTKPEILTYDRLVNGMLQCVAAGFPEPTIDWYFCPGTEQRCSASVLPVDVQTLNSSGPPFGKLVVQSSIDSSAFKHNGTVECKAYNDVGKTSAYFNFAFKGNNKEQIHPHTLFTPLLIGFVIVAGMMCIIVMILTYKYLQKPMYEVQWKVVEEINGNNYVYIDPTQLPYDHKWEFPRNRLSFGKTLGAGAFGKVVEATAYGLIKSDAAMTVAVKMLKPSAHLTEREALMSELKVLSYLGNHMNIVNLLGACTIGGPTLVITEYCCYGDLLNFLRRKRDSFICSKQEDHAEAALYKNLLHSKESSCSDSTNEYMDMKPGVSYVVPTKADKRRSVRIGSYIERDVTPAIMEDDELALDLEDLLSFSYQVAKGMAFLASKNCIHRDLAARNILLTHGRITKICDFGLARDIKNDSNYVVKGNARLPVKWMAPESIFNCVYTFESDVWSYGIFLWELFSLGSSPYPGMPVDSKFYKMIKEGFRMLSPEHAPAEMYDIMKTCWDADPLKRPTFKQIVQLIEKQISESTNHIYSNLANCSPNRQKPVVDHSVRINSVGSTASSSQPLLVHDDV
Description: as §1

MEK1 = biological target: T24, MEK1 (Homo sapiens, UniProt Q02750); experiment: KinaseProfiler MEK1
T24 construct: purchased Millipore, Inc. (KinaseProfiler service)
Description: as §1

MELK = biological target: T25, MELK (Homo sapiens, UniProt Q14680); experiment: KinaseProfiler MELK
T25 construct: purchased Millipore, Inc. (KinaseProfiler service)
Description: as §1

MSK2 = biological target: T26, MSK2 (Homo sapiens, UniProt O75676); experiment: KinaseProfiler MSK2
T26 construct: purchased Millipore, Inc. (KinaseProfiler service)
T26 sequence (O75676 whole entry): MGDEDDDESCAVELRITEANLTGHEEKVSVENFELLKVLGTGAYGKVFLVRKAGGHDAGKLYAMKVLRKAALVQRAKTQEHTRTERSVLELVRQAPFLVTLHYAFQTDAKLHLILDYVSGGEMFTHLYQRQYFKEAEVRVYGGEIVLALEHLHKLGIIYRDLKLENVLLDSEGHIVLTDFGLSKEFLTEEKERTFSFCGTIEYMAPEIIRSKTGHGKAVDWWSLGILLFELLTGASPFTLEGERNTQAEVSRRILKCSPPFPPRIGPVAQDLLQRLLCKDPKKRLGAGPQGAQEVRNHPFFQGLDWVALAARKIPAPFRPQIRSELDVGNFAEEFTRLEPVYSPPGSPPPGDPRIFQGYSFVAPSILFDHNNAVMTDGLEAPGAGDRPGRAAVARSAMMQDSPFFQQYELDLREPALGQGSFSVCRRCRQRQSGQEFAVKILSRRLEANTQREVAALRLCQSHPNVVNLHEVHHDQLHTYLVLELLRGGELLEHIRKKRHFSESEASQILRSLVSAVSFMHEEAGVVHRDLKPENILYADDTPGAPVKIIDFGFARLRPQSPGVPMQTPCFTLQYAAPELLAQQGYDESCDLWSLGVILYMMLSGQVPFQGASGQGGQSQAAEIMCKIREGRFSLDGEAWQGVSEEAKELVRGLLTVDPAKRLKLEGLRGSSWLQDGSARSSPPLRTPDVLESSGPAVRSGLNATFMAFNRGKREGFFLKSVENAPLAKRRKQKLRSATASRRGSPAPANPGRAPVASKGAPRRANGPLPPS
Description: as §1

MST3 = biological target: T27, MST3 (Homo sapiens, UniProt Q9Y6E0); experiment: KinaseProfiler MST3
T27 construct: purchased Millipore, Inc. (KinaseProfiler service)
Description: as §1

MYLK = biological target: T28, MYLK (Homo sapiens, UniProt Q15746); experiment: KinaseProfiler MYLK
T28 construct: purchased Millipore, Inc. (KinaseProfiler service)
Description: as §1

NEK7 = biological target: T29, NEK7 (Homo sapiens, UniProt Q8TDX7); experiment: KinaseProfiler NEK7
T29 construct: purchased Millipore, Inc. (KinaseProfiler service)
Description: as §1

p38delta = biological target: T30, p38delta (Homo sapiens, UniProt O15264); experiment: KinaseProfiler p38delta
T30 construct: purchased Millipore, Inc. (KinaseProfiler service)
Description: as §1

p38gamma = biological target: T31, p38gamma (Homo sapiens, UniProt P53778); experiment: KinaseProfiler p38gamma
T31 construct: purchased Millipore, Inc. (KinaseProfiler service)
Description: as §1

p70S6K = biological target: T32, p70S6K (Homo sapiens, UniProt P23443); experiment: KinaseProfiler p70S6K
T32 construct: purchased Millipore, Inc. (KinaseProfiler service)
Description: as §1

PAK4 = biological target: T33, PAK4 (Homo sapiens, UniProt O96013); experiment: KinaseProfiler PAK4
T33 construct: purchased Millipore, Inc. (KinaseProfiler service)
Description: as §1

PAK5 = biological target: T34, PAK5 (Homo sapiens, UniProt Q9P286); experiment: KinaseProfiler PAK5
T34 construct: purchased Millipore, Inc. (KinaseProfiler service)
Description: as §1

PhKgamma2 = biological target: T35, PhKgamma2 (Homo sapiens, UniProt P15735); experiment: KinaseProfiler PhKgamma2
T35 construct: purchased Millipore, Inc. (KinaseProfiler service)
T35 sequence (P15735 whole entry): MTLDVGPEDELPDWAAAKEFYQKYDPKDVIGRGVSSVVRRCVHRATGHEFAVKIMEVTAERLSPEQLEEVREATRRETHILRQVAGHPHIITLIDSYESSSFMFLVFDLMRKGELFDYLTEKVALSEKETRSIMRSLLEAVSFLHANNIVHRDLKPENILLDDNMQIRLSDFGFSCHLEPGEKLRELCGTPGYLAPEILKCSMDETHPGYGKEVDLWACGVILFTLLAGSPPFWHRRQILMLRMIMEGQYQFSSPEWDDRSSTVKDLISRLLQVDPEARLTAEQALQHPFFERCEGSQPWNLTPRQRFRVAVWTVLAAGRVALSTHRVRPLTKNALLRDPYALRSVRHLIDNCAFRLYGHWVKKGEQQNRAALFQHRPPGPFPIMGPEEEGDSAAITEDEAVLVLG
Description: as §1

Pim-3 = biological target: T36, Pim-3 (Homo sapiens, UniProt Q86V86); experiment: KinaseProfiler Pim-3
T36 construct: purchased Millipore, Inc. (KinaseProfiler service)
Description: as §1

PKCdelta = biological target: T37, PKCdelta (Homo sapiens, UniProt Q05655); experiment: KinaseProfiler PKCdelta
T37 construct: purchased Millipore, Inc. (KinaseProfiler service)
Description: as §1

PKD1 = biological target: T38, PKD1 (Homo sapiens, UniProt Q15139); experiment: KinaseProfiler PKD1
T38 construct: purchased Millipore, Inc. (KinaseProfiler service)
T38 sequence (Q15139 whole entry): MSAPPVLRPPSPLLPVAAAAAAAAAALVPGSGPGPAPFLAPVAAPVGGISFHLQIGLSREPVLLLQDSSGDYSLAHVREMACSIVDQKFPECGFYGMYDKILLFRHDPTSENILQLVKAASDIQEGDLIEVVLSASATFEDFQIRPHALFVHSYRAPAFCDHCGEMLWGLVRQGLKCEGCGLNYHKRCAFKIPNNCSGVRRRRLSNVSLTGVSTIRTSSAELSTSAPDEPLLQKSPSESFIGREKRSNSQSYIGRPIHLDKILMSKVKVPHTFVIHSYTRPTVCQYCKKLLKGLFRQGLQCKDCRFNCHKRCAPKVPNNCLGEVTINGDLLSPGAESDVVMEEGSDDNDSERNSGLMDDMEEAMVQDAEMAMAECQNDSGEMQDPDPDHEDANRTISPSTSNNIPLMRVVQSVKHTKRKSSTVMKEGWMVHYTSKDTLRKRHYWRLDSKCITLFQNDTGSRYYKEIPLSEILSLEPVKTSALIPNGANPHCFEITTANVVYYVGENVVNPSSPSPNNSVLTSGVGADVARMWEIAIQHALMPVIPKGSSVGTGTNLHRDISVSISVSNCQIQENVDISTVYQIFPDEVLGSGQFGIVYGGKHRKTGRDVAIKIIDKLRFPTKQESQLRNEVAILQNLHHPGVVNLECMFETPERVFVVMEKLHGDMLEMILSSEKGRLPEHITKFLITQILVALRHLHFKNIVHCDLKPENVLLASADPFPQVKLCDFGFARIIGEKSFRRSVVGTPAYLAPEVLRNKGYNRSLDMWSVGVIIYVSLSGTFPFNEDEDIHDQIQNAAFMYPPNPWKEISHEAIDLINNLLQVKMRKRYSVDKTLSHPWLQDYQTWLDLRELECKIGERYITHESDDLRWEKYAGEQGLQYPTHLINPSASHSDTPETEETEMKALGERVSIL
Description: as §1

Rsk3 = biological target: T39, Rsk3 (Homo sapiens, UniProt Q15349); experiment: KinaseProfiler Rsk3
T39 construct: purchased Millipore, Inc. (KinaseProfiler service)
Description: as §1

SIK = biological target: T40, SIK (Homo sapiens, UniProt P57059); experiment: KinaseProfiler SIK
T40 construct: purchased Millipore, Inc. (KinaseProfiler service)
Description: as §1

SRPK1 = biological target: T41, SRPK1 (Homo sapiens, UniProt Q96SB4); experiment: KinaseProfiler SRPK1
T41 construct: purchased Millipore, Inc. (KinaseProfiler service)
Description: as §1

SRPK2 = biological target: T42, SRPK2 (Homo sapiens, UniProt P78362); experiment: KinaseProfiler SRPK2
T42 construct: purchased Millipore, Inc. (KinaseProfiler service)
Description: as §1

TNK2 = biological target: T43, TNK2 (Homo sapiens, UniProt Q07912); experiment: KinaseProfiler TNK2
T43 construct: purchased Millipore, Inc. (KinaseProfiler service)
Description: as §1

Question: Which results are given for `Cc1c(-c2cnn(C)c2)nn(-c2ccccc2)c1NC(=O)Nc1cc(C(F)(F)F)nn1-c1ccccc1` [Example 3, 1-(1′,4-dimethyl-1-phenyl-1H,1′H-[3,4′-bipyrazol]-5-yl)-3-(1-phenyl-3-(trifluoromethyl)-1H-pyrazol-5-yl)urea]?
Answer: Avg POC (Abl-P): 154.5 POC; Avg POC (AKT1): 103.5 POC; Avg POC (AKT2): 219.5 POC; Avg POC (ALK4): 104.5 POC; Avg POC (BrSK2): 135 POC; Avg POC (CDK5/p25): 108.5 POC; Avg POC (CK1gamma2): 109 POC; Avg POC (DAPK2): 106 POC; Avg POC (DCAMKL2): 222.5 POC; Avg POC (DDR2): 98 POC; Avg POC (EphA4): 106.5 POC; Avg POC (FAK2): 103.5 POC; Avg POC (FGFR3): 116.5 POC; Avg POC (Fgr): 118 POC; Avg POC (Flt3): 71 POC; Avg POC (Flt4): 80.5 POC; Avg POC (Fms): 91.5 POC; Avg POC (GRK5): 84 POC; Avg POC (GRK7): 104.5 POC; Avg POC (HIPK3): 109.5 POC; Avg POC (ITK): 128 POC; Avg POC (JNK1alpha1): 111.5 POC; Avg POC (KIT): 86.5 POC; Avg POC (MEK1): 111 POC; Avg POC (MELK): 115 POC; Avg POC (MSK2): 119.5 POC; Avg POC (MST3): 146.5 POC; Avg POC (MYLK): 122 POC; Avg POC (NEK7): 118 POC; Avg POC (p38delta): 92.5 POC; Avg POC (p38gamma): 114.5 POC; Avg POC (p70S6K): 273.5 POC; Avg POC (PAK4): 103 POC; Avg POC (PAK5): 145.5 POC; Avg POC (PhKgamma2): 115.5 POC; Avg POC (Pim-3): 107.5 POC; Avg POC (PKCdelta): 98.5 POC; Avg POC (PKD1): 100.5 POC; Avg POC (Rsk3): 104.5 POC; Avg POC (SIK): 154.5 POC; Avg POC (SRPK1): 111 POC; Avg POC (SRPK2): 112.5 POC; Avg POC (TNK2): 118.5 POC
